# Measurements: patent publication US8455467B2, “2-methylene-vitamin D analogs and their uses” (Wisconsin Alumni Research Foundation, priority 2011, dated 2013)
# Experiments:
# [1] = tested on: Human promyelocytic leukemia (HL60) cells; experiment: HL-60 cell differentiation (nitro blue tetrazolium reduction); assay type: cell-based; details: for EC50: 4 days treatment, NBT reduction; for potency on HL-60 cell differentiation compared to 1,25(OH)2D3: in words
# Protocol: Serial dilutions were prepared so that a range of drug concentrations could be tested without changing the final concentration of ethanol 0.2%) present in the cell cultures.
# Human promyelocytic leukemia (HL60) cells were grown in RPMI-1640 medium containing 10% fetal bovine serum. The cells were incubated at 37° C. in the presence of 5% CO2.
# HL60 cells were plated at 1.2×10^5 cells/ml. Eighteen hours after plating, cells in duplicate were treated with drug. Four days later, the cells were harvested and a nitro blue tetrazolium reduction assay was performed (Collins et al., 1979; J. Exp. Med. 149:969-974). The percentage of differentiated cells was determined by counting a total of 200 cells and recording the number that contained intracellular black-blue formazan deposits. Verification of differentiation to monocytic cells was determined by measuring phagocytic activity (data not shown).
# [2] = Bone calcium mobilization (serum calcium) in vitamin D-deficient rats; assay type: in vivo, rat; details: 0.02% Ca diet; for bone calcium mobilization (serum calcium) at 87 pmol: 87 pmol/day for 4 consecutive days; for bone calcium mobilization (serum calcium) at 780 pmol: 780 pmol/day for 4 consecutive days; for bone calcium mobilization activity (serum calcium): 4 consecutive ip doses, overall, compared to 1,25(OH)2D3
# Protocol: (§1) Male, weanling Sprague-Dawley rats were placed on Diet 11 (Suda et al, J. Nutr. 100:1049, 1970) (0.47% Ca)+vitamins AEK for one week followed by Diet 11 (0.02% Ca)+vitamins AEK for 3 weeks. The rats were then switched to the same diet containing 0.47% Ca for one week followed by two weeks on the same diet containing 0.02% Ca. Dose administration began during the last week on 0.02% calcium diet. Four consecutive ip doses were given approximately 24 hours apart. Twenty-four hours after the last dose, blood was collected from the severed neck and the concentration of serum calcium determined by atomic absorption spectrometry as a measure of bone calcium mobilization. The first 10 cm of the intestine was also collected for intestinal calcium transport analysis using the everted gut sac method.
# [3] = molecular target: T1, full-length recombinant rat vitamin D receptor (Rattus norvegicus, UniProt P13053); experiment: Vitamin D receptor competitive binding with [3H]-1,25(OH)2D3; details: full-length recombinant rat VDR; for Ki: 1 nM radioligand, read-out: Ki, competition with [3H]-1,25(OH)2D3 for binding to the vitamin D receptor; for binding affinity to the receptor compared to 1,25-(OH)2D3: in words
# T1 construct: Full-length recombinant rat receptor was expressed in E. coli BL21 (DE3) Codon Plus RIL cells; His tag (histidine tag) (C); made in house; host or cells: E. coli BL21 (DE3) Codon Plus RIL
# T1 sequence (P13053 1-423): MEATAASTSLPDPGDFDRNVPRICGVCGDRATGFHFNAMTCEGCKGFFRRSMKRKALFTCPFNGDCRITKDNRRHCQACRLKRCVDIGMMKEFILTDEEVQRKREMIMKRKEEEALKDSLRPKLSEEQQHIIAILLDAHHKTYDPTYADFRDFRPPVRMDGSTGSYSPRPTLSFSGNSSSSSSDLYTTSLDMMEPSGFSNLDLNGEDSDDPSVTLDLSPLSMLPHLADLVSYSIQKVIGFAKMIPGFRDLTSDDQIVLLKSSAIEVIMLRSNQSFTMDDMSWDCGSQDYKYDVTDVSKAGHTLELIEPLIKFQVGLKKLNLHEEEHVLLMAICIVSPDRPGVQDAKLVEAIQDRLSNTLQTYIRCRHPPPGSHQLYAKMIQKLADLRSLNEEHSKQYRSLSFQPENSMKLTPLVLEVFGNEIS
# Protocol: Full-length recombinant rat receptor was expressed in E. coli BL21 (DE3) Codon Plus RIL cells and purified to homogeneity using two different column chromatography systems. The first system was a nickel affinity resin that utilizes the C-terminal histidine tag on this protein. The protein that was eluted from this resin was further purified using ion exchange chromatography (S-Sepharose Fast Flow). Aliquots of the purified protein were quick frozen in liquid nitrogen and stored at −80° C. until use. For use in binding assays, the protein was diluted in TEDK50 (50 mM Tris, 1.5 mM EDTA, pH7.4, 5 mM DTT, 150 mM KCl) with 0.1% Chaps detergent. The receptor protein and ligand concentration was optimized such that no more than 20% of the added radiolabeled ligand was bound to the receptor.
# Radiolabeled and unlabeled ligands were added to 100 mcl of the diluted protein at a final ethanol concentration of ≦10%, mixed and incubated overnight on ice to reach binding equilibrium. The following day, 100 mcl of hydroxylapatite slurry (50%) was added to each tube and mixed at 10-minute intervals for 30 minutes. The hydroxylapaptite was collected by centrifugation and then washed three times with Tris-EDTA buffer (50 mM Tris, 1.5 mM EDTA, pH 7.4) containing 0.5% Titron X-100. After the final wash, the pellets were transferred to scintillation vials containing 4 ml of Biosafe II scintillation cocktail, mixed and placed in a scintillation counter. Total binding was determined from the tubes containing only radiolabeled ligand.
# [4] = Intestinal calcium transport (everted gut sac method) in vitamin D-deficient rats; assay type: in vivo, rat; details: 0.02% Ca diet, 4 consecutive ip doses, compared to 1,25(OH)2D3
# Protocol: as §1
Ki [3],"binding affinity to the receptor compared to 1,25-(OH)2D3 [3]","EC50 ([1]; Homo sapiens, HL-60, 96 h)",Compound,EC50 [1],bone calcium mobilization (serum calcium) at 87 pmol [2],bone calcium mobilization (serum calcium) at 780 pmol [2],bone calcium mobilization activity (serum calcium) [2],"potency on HL-60 cell differentiation compared to 1,25(OH)2D3 [1]",intestinal calcium transport activity [4]
–,–,–,"C=C1/C(=C\C=C2/CCC[C@]3(C)[C@@H]([C@H](C)CCCC(C)(C)O)CC[C@@H]23)C[C@@H](O)C[C@@H]1O [1α,25-dihydroxyvitamin D3, reference compound]",3 nM,significant increases in serum calcium,significant increases in serum calcium,increased serum calcium levels,–,–
0.9 nM,about the same affinity,> 100 nM,"C=C1CC(=C)[C@H](O)C/C1=C/C=C1\CCC[C@]2(C)[C@@H]([C@H](C)CCCC(C)(C)O)CC[C@@H]12 [1D-QM, (20R)-25-hydroxy-2-methylene-vitamin D3]",–,little or no mobilization of bone calcium,–,less potent than the native hormone,"almost as potent as 1,25(OH)2D3",–
0.2 nM,about the same affinity,10 nM,"C=C1CC(=C)[C@H](O)C/C1=C/C=C1\CCC[C@]2(C)[C@@H]([C@@H](C)CCCC(C)(C)O)CC[C@@H]12 [1D-QMS, (20S)-25-hydroxy-2-methylene-vitamin D3]",–,–,significant mobilization of bone calcium,about the same potency as the native hormone,"almost as potent as 1,25(OH)2D3","about equivalent to 1,25(OH)2D3"
